Columns and labels:
[1] = test system: HCV replicon cells Huh 9B; type: cell-based; conditions: concentration reducing total cell area by 50% relative to DMSO controls; methylene blue, absorbance 620 nm; 72 h incubation
[2] = test system: HCV replicon cells Huh 9B; assay: HCV replicon assay (luciferase readout); type: cell-based; conditions: Hepatitis C virus, 72 h, concentration reducing replicon level (luciferase activity) by 50% vs untreated cell control; 72 h incubation
How it was run: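 Compounds, made up at twice final strength (final DMSO 1%), were added to subgenomic replicon cells one day after plating. Incubation then ran 72 h at 37 °C, 5% CO2, without G418. Replication was quantified as firefly luciferase luminescence in lysed cells, with cytotoxicity assessed on a duplicate clear plate.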

| SMILES | TD50 [1] | IC50 [2] |
| --- | --- | --- |
| Cc1ccc(NC(=O)c2ccc(N3CCOCC3)cc2)cc1-c1ccc(C(=O)Nc2ccc(CN3CCS(=O)(=O)CC3)cc2)cc1 [Example 87, 2′-Methyl-5′-(4-morpholin-4-yl-benzoylamino)-biphenyl-4-carboxylic acid [4-(1,1-dioxo-1lambda*6*-thiomorpholin-4-ylmethyl)-phenyl]-amide] | ** (** > 50 μM) | < 1000 nM |
| Cc1ccc(NC(=O)c2ccc(N3CCOCC3)cc2)cc1-c1ccc(C(=O)NCc2cccc(Br)c2)cc1 [Example 88, 2′-Methyl-5′-(4-morpholin-4-yl-benzoylamino)-biphenyl-4-carboxylic acid 3-bromo-benzylamide] | ** (** > 50 μM) | 1000 to 5000 nM |
| Cc1cccc(CNC(=O)c2ccc(-c3cc(NC(=O)c4ccc(N5CCOCC5)cc4)ccc3C)cc2)c1 [Example 89, 2′-Methyl-5′-(4-morpholin-4-yl-benzoylamino)-biphenyl-4-carboxylic acid 3-methyl-benzylamide] | ** (** > 50 μM) | 1000 to 5000 nM |
| Cc1ccc(NC(=O)c2ccc(N3CCOCC3)cc2)cc1-c1ccc(C(=O)Nc2ccc(Br)c(Cl)c2)cc1 [Example 90, 2′-Methyl-5′-(4-morpholin-4-yl-benzoylamino)-biphenyl-4-carboxylic acid (4-bromo-3-chloro-phenyl)-amide] | ** (** > 50 μM) | > 5000 nM |
| COc1cccc(NC(=O)c2ccc(-c3cc(NC(=O)c4ccc(N5CCOCC5)cc4)ccc3C)cc2)c1 [Example 91, 2′-Methyl-5′-(4-morpholin-4-yl-benzoylamino)-biphenyl-4-carboxylic acid (3-methoxy-phenyl)-amide] | ** (** > 50 μM) | 1000 to 5000 nM |
| Cc1ccc(NC(=O)c2ccc(N3CCOCC3)cc2)cc1-c1ccc(C(=O)NCc2cccc(OC(F)(F)F)c2)cc1 [Example 92, 2′-Methyl-5′-(4-morpholin-4-yl-benzoylamino)-biphenyl-4-carboxylic acid 3-trifluoromethoxy-benzylamide] | ** (** > 50 μM) | 1000 to 5000 nM |
| Cc1ccc(NC(=O)c2ccc(N3CCOCC3)cc2)cc1-c1ccc(C(=O)Nc2ccc3cc[nH]c3c2)cc1 [Example 93, 2′-Methyl-5′-(4-morpholin-4-yl-benzoylamino)-biphenyl-4-carboxylic acid (1H-indol-6-yl)-amide] | ** (** > 50 μM) | < 1000 nM |
| Cc1ccc(NC(=O)c2ccc(N3CCOCC3)cc2)cc1-c1ccc(C(=O)NCc2cccc(Cl)c2)cc1 [Example 94, 2′-Methyl-5′-(4-morpholin-4-yl-benzoylamino)-biphenyl-4-carboxylic acid 3-chloro-benzylamide] | ** (** > 50 μM) | 1000 to 5000 nM |
| Cc1ccc(CNC(CO)Cc2cnc[nH]2)cc1-c1ccc(C(=O)Nc2ccc(N3CCOCC3)cc2)cc1 (centres unmarked) [Example 95, 5′-{[1-Hydroxymethyl-2-(3H-imidazol-4-yl)-ethylamino]-methyl}-2′-methyl-biphenyl-4-carboxylic acid (4-morpholin-4-yl-phenyl)-amide] | * (* < 50 μM) | 1000 to 5000 nM |
| Cc1ccc(C(=O)Nc2ccc(N3CCOCC3)cc2)cc1-c1ccc(CNCc2cccc(Cl)c2)cc1 [Example 96, 4′-[(3-Chloro-benzylamino)-methyl]-6-methyl-biphenyl-3-carboxylic acid (4-morpholin-4-yl-phenyl)-amide] | ** (** > 50 μM) | 1000 to 5000 nM |
| Cc1ccc(C(=O)Nc2ccc(N3CCOCC3)cc2)cc1-c1ccc(CNc2ccc3cn[nH]c3c2)cc1 [Example 97, 4′-[(1H-Indazol-6-ylamino)-methyl]-6-methyl-biphenyl-3-carboxylic acid (4-morpholin-4-yl-phenyl)-amide] | ** (** > 50 μM) | 1000 to 5000 nM |
| Cc1ccc(C(=O)Nc2ccc(N3CCOCC3)cc2)cc1-c1ccc(CNC2CC2)cc1 [Example 98, 4′-Cyclopropylaminomethyl-6-methyl-biphenyl-3-carboxylic acid (4-morpholin-4-yl-phenyl)-amide] | * (* < 50 μM) | 1000 to 5000 nM |
| Cc1ccc(C(=O)Nc2ccc(N3CCOCC3)cc2)cc1-c1ccc(CN[C@@H](CO)C(=O)O)cc1 [Example 99, (S)-3-Hydroxy-2-{[2′-methyl-5′-(4-morpholin-4-yl-phenylcarbamoyl)-biphenyl-4-ylmethyl]-amino}-propionic acid] | ** (** > 50 μM) | 1000 to 5000 nM |
| Cc1ccc(C(=O)Nc2ccc(N3CCOCC3)cc2)cc1-c1ccc(CNCCc2cnc[nH]2)cc1 [Example 100, 4′-{[2-(3H-Imidazol-4-yl)-ethylamino]-methyl}-6-methyl-biphenyl-3-carboxylic acid (4-morpholin-4-yl-phenyl)-amide] | ** (** > 50 μM) | 1000 to 5000 nM |
| Cc1ccc(C(=O)Nc2ccc(N3CCOCC3)cc2)cc1-c1ccc(CNC(CO)Cc2cnc[nH]2)cc1 (centres unmarked) [Example 101, 4′-{[1-Hydroxymethyl-2-(3H-imidazol-4-yl)-ethylamino]-methyl}-6-methyl-biphenyl-3-carboxylic acid (4-morpholin-4-yl-phenyl)-amide] | * (* < 50 μM) | < 1000 nM |
| Cc1ccc(C(=O)Nc2ccc(N3CCOCC3)cc2)cc1-c1ccc(CNCCN(C)C)cc1 [Example 102, 4′-[(2-Dimethylamino-ethylamino)-methyl]-6-methyl-biphenyl-3-carboxylic acid (4-morpholin-4-yl-phenyl)-amide] | * (* < 50 μM) | 1000 to 5000 nM |
| Cc1ccc(C(=O)Nc2ccc(N3CCOCC3)cc2)cc1-c1ccc(NC(=O)c2cccc(Br)c2)cc1 [Example 103, 4′-(3-Bromo-benzoylamino)-6-methyl-biphenyl-3-carboxylic acid (4-morpholin-4-yl-phenyl)-amide] | ** (** > 50 μM) | 1000 to 5000 nM |
| Cc1ccc(C(=O)Nc2ccc(N3CCOCC3)cc2)cc1-c1ccc(NC(=O)c2nc3ccccc3nc2O)cc1 [Example 104, 3-Hydroxy-quinoxaline-2-carboxylic acid [2′-methyl-5′-(4-morpholin-4-yl-phenylcarbamoyl)-biphenyl-4-yl]-amide] | ** (** > 50 μM) | 1000 to 5000 nM |
| Cc1ccc(C(=O)Nc2ccc(N3CCOCC3)cc2)cc1-c1ccc(NC(=O)CNC(=O)c2ccccc2)cc1 [Example 105, 4′-(2-Benzoylamino-acetylamino)-6-methyl-biphenyl-3-carboxylic acid (4-morpholin-4-yl-phenyl)-amide] | ** (** > 50 μM) | 1000 to 5000 nM |
| Cc1ccc(C(=O)Nc2ccc(N3CCOCC3)cc2)cc1-c1ccc(NC(=O)Cc2cccc(Cl)c2)cc1 [Example 106, 4′-[2-(3-Chloro-phenyl)-acetylamino]-6-methyl-biphenyl-3-carboxylic acid (4-morpholin-4-yl-phenyl)-amide] | ** (** > 50 μM) | 1000 to 5000 nM |
| COc1cccc(C(=O)Nc2ccc(-c3cc(C(=O)Nc4ccc(N5CCOCC5)cc4)ccc3C)cc2)c1 [Example 107, 4′-(3-Methoxy-benzoylamino)-6-methyl-biphenyl-3-carboxylic acid (4-morpholin-4-yl-phenyl)-amide] | ** (** > 50 μM) | < 1000 nM |
| Cc1ccc(NC(=O)c2cn[nH]c2)cc1-c1ccc(C(=O)Nc2ccc(N3CCOCC3)cc2)cc1 [Example 108, 1H-Pyrazole-4-carboxylic acid [6-methyl-4′-(4-morpholin-4-yl-phenylcarbamoyl)-biphenyl-3-yl]-amide] | ** (** > 50 μM) | 1000 to 5000 nM |
